Measurements from US9623063B2, “Extracts from Ajuga reptans cell lines, their preparation and use” (I.R.B. ISTITUTO DI RICERCHE BIOTECNOLOGICHE S.r.l., priority 2005, dated 2017).

Tests used:
3T3 fibroblasts = assay: BSO-induced oxidative death of 3T3 fibroblasts (MTT); format: cell-based, BALB/c mouse; conditions: 20 μM; BSO 200 μM, 24 hours
[1] = Superoxide anion chemiluminescent assay (hypoxanthine/xanthine oxidase, Lumimax kit); format: biochemical; conditions: means of 6 independent assays
Source text: (§1) The superoxide anion has been measured by a chemiluminescent assay based on the hypoxanthine (HPX)/xanthine oxidase (XOD) reaction using the Lumimax Superoxide Anion Detection Kit (Stratagene, La Jolla, Calif., USA) and following the manufacturer's instructions. Hydroxyl radical scavenger activity has been measured by means of the Fenton reaction for the production of hydroxyl radicals and chemiluminescent dosage (using a Victor^3 chemiluminometer, Wallac, Finland) with luminol. Peroxynitrite ions have been determined by means of dosage with a spontaneous generator of peroxynitrites (3-morpholinosidnonimine hydrochloride; SIN-1) and a stable reagent for the nitroxyl ions (2-(4-carboxyphenyl)-4,4,5,5-tetramethylimidazoline-1-oxyl-3-oxide potassium salt PTIO spin trap) then dosed by means of electron spin resonance (ESR) using a Nippon Denshi JES-FR30. Lipid peroxidation has been generated using Fe^2+ induced-oxygen reactive species, and detected using thiobarbituric acid in accordance with Buege, J A & Aust, S D: Microsomal lipid peroxidation (Methods Enzymol.
(§2) The results are expressed as the concentration inhibiting 50% of activity (IC50), means of 6 independent assays.

[2] = Peroxynitrite scavenging (SIN-1, PTIO spin trap, ESR); format: biochemical; conditions: means of 6 independent assays
Source text: as §1, §2

A549 cells (ATCC-CCL185) = assay: BSO-induced oxidative stress, ROS by DCF fluorimetry in A549 cells; format: cell-based, human; conditions: 20 μM; with BSO; control without BSO = 100
Experimental: 10×10^5 A549 cells (ATCC-CCL185) have been seeded into wells with 3 ml of DMEM/F12K HAM medium (Sigma-Aldrich) with 10% FCS and incubated at 37° C. in a 5% CO2, water vapour saturated atmosphere. After 24 hours the culture medium is replaced by medium supplemented with BSO, which is left in contact with the cells for 20 hours. The medium is once again replaced with medium containing BSO in the presence or absence of the test compound. After 4 hours, quantitative measurement of the ROSs (hydroxyl radicals) is performed by washing the cells with phosphate buffer and then incubating them with 30 μM DCF-DA in buffer solution. At the end of a 15 minute incubation, excess DCF-DA is removed from the cells by washing, prior to measuring the fluorescence emitted.
Antioxidant activity measurements are performed using a (Hitachi F3010) spectrophotometer with excitation at 488 nm and measuring emission at 525 nm, and values are expressed in pmoles, by extrapolation from the calibration curve constructed using known quantities of DCF, and in relation to total cellular protein. Values are thus expressed in % ages with respect to the ROS content of the cells not subjected to treatment with BSO (control) to which are assigned a value of 100.
The Extracts 1 and 2, Teupolioside and Ascorbic Acid were solubilized in phosphate buffer 10 mM at pH 7.4, whereas trolox was solubilized in 0.1% of dimethylsulphoxide and culture medium.

Question: With `C[C@@H]1O[C@@H](O[C@@H]2[C@@H](O)[C@H](OCCc3ccc(O)c(O)c3)O[C@H](CO)[C@H]2OC(=O)/C=C/c2ccc(O)c(O)c2)[C@H](O[C@@H]2O[C@H](CO)[C@H](O)[C@H](O)[C@H]2O)[C@H](O)[C@H]1O` [Teupolioside, teupolioside] as the compound, how does the “% survived cells” value (3T3 fibroblasts) read?
Answer: 75.5%

Question: What about the “Superoxide radical (IC50)” value [1] of the same compound?
Answer: 1 µg/mL

Question: What about the “Peroxynitrite radical (IC50)” value [2] of the same compound?
Answer: 1.8 µg/mL

Question: What about the “% ROS in picomoles” value (A549 cells (ATCC-CCL185)) of the same compound?
Answer: 135 ± 7 %
